Assay results taken from ChEMBL document CHEMBL1909046, “DrugMatrix in vitro pharmacology data”.

Experiments:
[1] = biological target: T1, Alpha-1D adrenergic receptor (Homo sapiens, UniProt P25100); assay type: cell membranes, HEK293, Membrane; conditions: hek293; note: in other assays of this panel Not Active means under 50% inhibition at 10 µM
T1 sequence (P25100 whole entry): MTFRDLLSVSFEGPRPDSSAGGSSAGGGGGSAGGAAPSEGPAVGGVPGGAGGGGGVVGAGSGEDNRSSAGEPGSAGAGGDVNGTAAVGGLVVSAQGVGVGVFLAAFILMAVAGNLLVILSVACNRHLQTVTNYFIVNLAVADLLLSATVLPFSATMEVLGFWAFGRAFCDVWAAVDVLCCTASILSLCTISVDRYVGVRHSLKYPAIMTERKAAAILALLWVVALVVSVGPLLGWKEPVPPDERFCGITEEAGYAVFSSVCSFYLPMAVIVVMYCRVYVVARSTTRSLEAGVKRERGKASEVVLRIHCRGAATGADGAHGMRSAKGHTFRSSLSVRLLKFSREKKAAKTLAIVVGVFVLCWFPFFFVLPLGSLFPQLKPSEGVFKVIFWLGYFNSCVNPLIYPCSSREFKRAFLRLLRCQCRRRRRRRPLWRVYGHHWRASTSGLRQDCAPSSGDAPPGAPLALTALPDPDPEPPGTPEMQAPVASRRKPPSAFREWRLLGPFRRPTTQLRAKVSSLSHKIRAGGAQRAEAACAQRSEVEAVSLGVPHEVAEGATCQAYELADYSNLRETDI

[2] = biological target: T2, Cholecystokinin receptor type A (Homo sapiens, UniProt P32238); assay type: cell membranes, Membrane; conditions: 1321-n1; note: in other assays of this panel Not Active means under 50% inhibition at 10 µM
T2 sequence (P32238 whole entry): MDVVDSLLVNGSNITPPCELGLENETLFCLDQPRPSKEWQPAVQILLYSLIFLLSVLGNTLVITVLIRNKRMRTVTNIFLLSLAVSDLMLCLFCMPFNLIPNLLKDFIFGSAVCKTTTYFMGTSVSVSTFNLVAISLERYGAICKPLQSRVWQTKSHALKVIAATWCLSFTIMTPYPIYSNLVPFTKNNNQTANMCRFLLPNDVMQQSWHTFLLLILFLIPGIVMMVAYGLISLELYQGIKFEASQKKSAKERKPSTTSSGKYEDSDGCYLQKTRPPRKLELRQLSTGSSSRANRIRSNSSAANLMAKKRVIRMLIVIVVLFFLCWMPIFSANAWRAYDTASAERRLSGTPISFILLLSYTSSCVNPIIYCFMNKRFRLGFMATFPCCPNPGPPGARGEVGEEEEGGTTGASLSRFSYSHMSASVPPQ

[3] = biological target: Prostaglandin G/H synthase 1 (Homo sapiens, UniProt P23219); assay: biochemical; assay type: tissue-based, Platelet; conditions: platelet;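 note: inhibition of COX-1 enzyme activity, with arachidonic acid supplied as substrate; in other assays of this panel Not Active means under 50% inhibition at 10 µM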
Chain of Prostaglandin G/H synthase 1 (P23219 whole entry): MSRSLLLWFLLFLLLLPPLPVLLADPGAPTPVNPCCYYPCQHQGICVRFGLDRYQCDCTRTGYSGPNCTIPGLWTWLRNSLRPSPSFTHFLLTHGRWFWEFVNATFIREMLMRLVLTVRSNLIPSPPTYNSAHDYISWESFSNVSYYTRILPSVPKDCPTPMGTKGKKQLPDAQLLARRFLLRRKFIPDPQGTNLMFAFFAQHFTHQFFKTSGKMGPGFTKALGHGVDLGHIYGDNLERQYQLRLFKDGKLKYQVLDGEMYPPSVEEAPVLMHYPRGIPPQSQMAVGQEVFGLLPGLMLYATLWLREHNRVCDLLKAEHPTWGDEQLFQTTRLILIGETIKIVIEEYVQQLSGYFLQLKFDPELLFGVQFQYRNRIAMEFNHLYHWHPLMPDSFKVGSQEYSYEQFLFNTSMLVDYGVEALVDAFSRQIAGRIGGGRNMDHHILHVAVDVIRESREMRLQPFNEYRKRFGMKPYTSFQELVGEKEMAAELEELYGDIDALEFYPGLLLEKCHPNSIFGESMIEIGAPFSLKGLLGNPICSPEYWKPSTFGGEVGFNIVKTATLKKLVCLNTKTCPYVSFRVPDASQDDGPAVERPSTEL

[4] = biological target: T3, Neuropeptide Y receptor type 1 (Homo sapiens, UniProt P25929); assay type: cell membranes, Membrane; conditions: sk-n-mc; note: in other assays of this panel Not Active means under 50% inhibition at 10 µM
T3 sequence (P25929 whole entry): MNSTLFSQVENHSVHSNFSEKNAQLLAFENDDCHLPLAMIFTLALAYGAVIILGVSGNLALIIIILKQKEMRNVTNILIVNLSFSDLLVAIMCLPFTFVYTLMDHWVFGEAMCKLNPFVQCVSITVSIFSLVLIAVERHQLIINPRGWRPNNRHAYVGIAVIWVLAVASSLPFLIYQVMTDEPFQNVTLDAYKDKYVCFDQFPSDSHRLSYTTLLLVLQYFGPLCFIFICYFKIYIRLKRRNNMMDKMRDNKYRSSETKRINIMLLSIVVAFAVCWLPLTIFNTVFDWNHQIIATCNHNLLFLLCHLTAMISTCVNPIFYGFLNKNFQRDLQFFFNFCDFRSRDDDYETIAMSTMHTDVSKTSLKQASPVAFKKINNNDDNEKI

[5] = biological target: T4, 5-hydroxytryptamine receptor 1A (Rattus norvegicus, UniProt P19327); assay type: cell membranes, CHO-K1, Membrane; conditions: cho-k1; note: in other assays of this panel Not Active means under 50% inhibition at 10 µM
T4 sequence (P19327 whole entry): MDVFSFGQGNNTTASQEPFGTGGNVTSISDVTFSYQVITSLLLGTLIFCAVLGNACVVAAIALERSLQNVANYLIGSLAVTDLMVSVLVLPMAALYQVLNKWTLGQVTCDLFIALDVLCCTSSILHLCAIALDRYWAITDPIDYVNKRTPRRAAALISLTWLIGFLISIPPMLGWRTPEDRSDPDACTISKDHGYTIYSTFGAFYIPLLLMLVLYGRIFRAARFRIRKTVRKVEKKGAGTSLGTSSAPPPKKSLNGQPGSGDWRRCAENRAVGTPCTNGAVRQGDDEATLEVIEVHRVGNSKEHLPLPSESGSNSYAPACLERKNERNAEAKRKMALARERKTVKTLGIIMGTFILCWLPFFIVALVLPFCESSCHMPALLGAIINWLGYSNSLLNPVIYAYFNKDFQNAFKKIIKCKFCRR

Adenosine receptor A2a = Adenosine receptor A2a (Homo sapiens, UniProt P29274); assay: DRUGMATRIX: Adenosine A2A radioligand binding (ligand: […]); assay type: cell membranes, HEK293, Membrane; conditions: hek293; Not Active = under 50% inhibition at 10 µM
Chain of Adenosine receptor A2a (P29274 whole entry): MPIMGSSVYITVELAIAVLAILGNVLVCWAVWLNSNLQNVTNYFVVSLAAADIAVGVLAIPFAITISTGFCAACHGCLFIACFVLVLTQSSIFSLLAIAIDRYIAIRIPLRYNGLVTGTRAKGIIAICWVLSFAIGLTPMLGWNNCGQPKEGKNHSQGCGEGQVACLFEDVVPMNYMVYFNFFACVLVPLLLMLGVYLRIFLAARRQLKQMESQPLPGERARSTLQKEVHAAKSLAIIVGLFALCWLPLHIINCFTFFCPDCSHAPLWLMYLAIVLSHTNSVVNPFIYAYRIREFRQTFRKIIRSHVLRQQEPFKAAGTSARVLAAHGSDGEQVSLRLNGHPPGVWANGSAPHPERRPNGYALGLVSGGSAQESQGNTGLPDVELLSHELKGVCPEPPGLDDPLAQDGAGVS

TRANSPLATIN
Not Active: IC50 [1] | Ki [1] | IC50 [2] | Ki [2] | IC50 [3] | Ki [3] | IC50 [4] | Ki [4] | IC50 [5] | Ki [5] | IC50 (Adenosine receptor A2a) | Ki (Adenosine receptor A2a)

ZIRCONIUM(IV) CHLORIDE
Not Active: IC50 [1] | Ki [1] | IC50 [2] | Ki [2] | IC50 [3] | Ki [3] | IC50 [4] | Ki [4] | IC50 [5] | Ki [5] | IC50 (Adenosine receptor A2a) | Ki (Adenosine receptor A2a)
